Values quoted from earlier work in patent US20250231185A1, “Coronavirus T Cell Epitopes, Megapools and Uses Thereof” (La Jolla Institute for Immunology, priority 2021, published 2025).

System: CD8+ T cells
Conditions: CD8R (D) megapool epitopes; dominant = recognized by 3 or more donors/different studies; cited from earlier work

Substance	Dominant
1666 (SLVKPSFYV) [compound 1666]	Yes (more dominant epitopes are defined by being recognized by 3 or more donors/different studies)
1667 (YVYSRVKNL) [compound 1667]	Yes (more dominant epitopes are defined by being recognized by 3 or more donors/different studies)
1668 (GTITVEELK) [compound 1668]	Yes (more dominant epitopes are defined by being recognized by 3 or more donors/different studies)
1669 (KLLEQWNLV) [compound 1669]	Yes (more dominant epitopes are defined by being recognized by 3 or more donors/different studies)
1670 (FLFLTWICL) [compound 1670]	Yes (more dominant epitopes are defined by being recognized by 3 or more donors/different studies)
1671 (NRFLYIIKL) [compound 1671]	Yes (more dominant epitopes are defined by being recognized by 3 or more donors/different studies)
1672 (TLACFVLAAV) [compound 1672]	Yes (more dominant epitopes are defined by being recognized by 3 or more donors/different studies)
1674 (RLFARTRSMW) [compound 1674]	Yes (more dominant epitopes are defined by being recognized by 3 or more donors/different studies)
1675 (SMWSFNPET) [compound 1675]	Yes (more dominant epitopes are defined by being recognized by 3 or more donors/different studies)
1676 (SELVIGAVIL) [compound 1676]	Yes (more dominant epitopes are defined by being recognized by 3 or more donors/different studies)
1677 (AVILRGHLR) [compound 1677]	Yes (more dominant epitopes are defined by being recognized by 3 or more donors/different studies)
1678 (ATSRTLSYY) [compound 1678]	Yes (more dominant epitopes are defined by being recognized by 3 or more donors/different studies)
1679 (ATSRTLSYYK) [compound 1679]	Yes (more dominant epitopes are defined by being recognized by 3 or more donors/different studies)
1680 (RYRIGNYKL) [compound 1680]	Yes (more dominant epitopes are defined by being recognized by 3 or more donors/different studies)
1682 (NTASWFTAL) [compound 1682]	Yes (more dominant epitopes are defined by being recognized by 3 or more donors/different studies)
1683 (KFPRGQGVPI) [compound 1683]	Yes (more dominant epitopes are defined by being recognized by 3 or more donors/different studies)
1684 (FPRGQGVPI) [compound 1684]	Yes (more dominant epitopes are defined by being recognized by 3 or more donors/different studies)

Substance	Dominant
1685 (YYRRATRRIR) [compound 1685]	Yes (more dominant epitopes are defined by being recognized by 3 or more donors/different studies)
1686 (RIRGGDGKMK) [compound 1686]	Yes (more dominant epitopes are defined by being recognized by 3 or more donors/different studies)
1687 (KMKDLSPRW) [compound 1687]	Yes (more dominant epitopes are defined by being recognized by 3 or more donors/different studies)
1688 (LSPRWYFYYL) [compound 1688]	Yes (more dominant epitopes are defined by being recognized by 3 or more donors/different studies)
1689 (SPRWYFYYL) [compound 1689]	Yes (more dominant epitopes are defined by being recognized by 3 or more donors/different studies)
1690 (GTGPEAGLPY) [compound 1690]	Yes (more dominant epitopes are defined by being recognized by 3 or more donors/different studies)
1691 (ATEGALNTPK) [compound 1691]	Yes (more dominant epitopes are defined by being recognized by 3 or more donors/different studies)
1692 (NPANNAAIVL) [compound 1692]	Yes (more dominant epitopes are defined by being recognized by 3 or more donors/different studies)
1693 (VLQLPQGTTL) [compound 1693]	Yes (more dominant epitopes are defined by being recognized by 3 or more donors/different studies)
1694 (LALLLLDRL) [compound 1694]	Yes (more dominant epitopes are defined by being recognized by 3 or more donors/different studies)
1695 (LLLLDRLNQL) [compound 1695]	Yes (more dominant epitopes are defined by being recognized by 3 or more donors/different studies)
1696 (LLLDRLNQL) [compound 1696]	Yes (more dominant epitopes are defined by being recognized by 3 or more donors/different studies)
1697 (QQQQGQTVTK) [compound 1697]	Yes (more dominant epitopes are defined by being recognized by 3 or more donors/different studies)
1698 (KPRQKRTAT) [compound 1698]	Yes (more dominant epitopes are defined by being recognized by 3 or more donors/different studies)
1701 (AQFAPSASAF) [compound 1701]	Yes (more dominant epitopes are defined by being recognized by 3 or more donors/different studies)
1702 (ASAFFGMSR) [compound 1702]	Yes (more dominant epitopes are defined by being recognized by 3 or more donors/different studies)
1703 (GMSRIGMEV) [compound 1703]	Yes (more dominant epitopes are defined by being recognized by 3 or more donors/different studies)

Same assay, conditions: SARS-CoV-2 Ag S; T cell type recognizing the epitope; cited from earlier work

Substance	Restriction
1426 (QSAPHGVVF) [compound 1426]	CD8
1430 (GVVFLHVTY) [compound 1430]	CD8
1432 (HVTYVPAQEK) [compound 1432]	CD8
1434 (VTYVPAQEK) [compound 1434]	CD8
1435 (TYVPAQEKNFT) [compound 1435]	CD8
1436 (FPREGVFV) [compound 1436]	CD8
1438 (GVFVSNGTHW) [compound 1438]	CD8
1439 (VFVSNGTHW) [compound 1439]	CD8
1440 (VFVSNGTHWF) [compound 1440]	CD8
1441 (FVSNGTHWF) [compound 1441]	CD8
1443 (HWFVTQRNF) [compound 1443]	CD8
1444 (WFVTQRNFY) [compound 1444]	CD8
1445 (IITTDNTFV) [compound 1445]	CD8
1448 (DSFKEELDKY) [compound 1448]	CD8
1449 (SFKEELDKY) [compound 1449]	CD8
1450 (NASVVNIQK) [compound 1450]	CD8
1454 (NESLIDLQEL) [compound 1454]	CD8
1455 (SLIDLQEL) [compound 1455]	CD8
1456 (LQELGKYEQY) [compound 1456]	CD8
1457 (QELGKYEQY) [compound 1457]	CD8
1459 (YEQYIKWPW) [compound 1459]	CD8
1460 (QYIKWPWYIW) [compound 1460]	CD8
1464 (CMTSCCSCLK) [compound 1464]	CD8
1465 (FDEDDSEPVL) [compound 1465]	CD8
1467 (EPVLKGVKL) [compound 1467]	CD8
1468 (VLKGVKLHY) [compound 1468]	CD8
